Source: patent publication US20160030391A1, “METHODS AND COMPOSITIONS FOR IMPROVING COGNITIVE FUNCTION” (THE JOHNS HOPKINS UNIVERSITY, priority 2013, published 2016)

Tests used:
aMCI subjects [1] = assay: Buschke Selective Reminding Test - Delayed Recall; format: in vivo, human; conditions: levetiracetam 125 mg twice a day for two weeks
[2] = test system: Age-Impaired (AI) Long-Evans rats; assay: Morris Water Maze retention trial, levetiracetam in aged-impaired rats; format: in vivo, rat
Method: The MWM apparatus consists of a large, circular pool (diameter 1.83 m; height, 0.58 m) filled with water (27° C.) that is made opaque through the addition of non-toxic pigment or some other substance. In the typical “hidden platform” version of the test, rats are trained to find a camouflaged white escape platform (height, 34.5 cm) that is positioned in the center of one quadrant of the maze about 1.0 cm below the water surface. This platform can be retracted to the bottom of the tank or raised to its normal position from outside the maze during behavioral testing. The location of the platform remains constant from trial to trial. Because there are no local cues that mark the position of the platform, the rat's ability to locate it efficiently from any starting position at the perimeter of the pool depends on using information surrounding the maze. The maze is surrounded by black curtains to which white patterns are affixed to provide a configuration of spatial cues. A second platform (height 37.5 cm), with its surface painted black is elevated 2 cm above the water surface during cue training to control for factors unrelated to cognition. The behavior of a rat in the pool is recorded by a camera that is suspended 2.5 m above the center of the pool. The camera is connected to a video tracking system (HVS Image Advanced Tracker VP200) and a PC computer running HVS software developed by Richard Baker of HVS Image, Hampton, UK. The MWM protocol is optimized for sensitivity to the effects of aging on cognition and for measures of reliable individual differences within the aged population of out-bred Long-Evans rats (Gallagher et al. Behav. Neurosci. 107:618-626, (1993)). Rats receive three trials per day for 8 consecutive days, using a 60 sec inter-trial interval. On each training trial, the rat is released into the maze from one of four equally spaced starting positions around the perimeter of the pool. […] At the completion of the protocol using the hidden platform, rats are assessed for cue learning using the visible platform. […]

[3] = test system: Dentate Gyrus/CA3 region of aMCI patients; assay: fMRI activity in DG/CA3 during lure stimuli correctly identified as similar; format: in vivo, human; conditions: aMCI subjects
aMCI subjects [4] = assay: Benton Visual Retention Test; format: in vivo, human; conditions: levetiracetam 125 mg twice a day for two weeks
Excerpt: Breaks are provided to the subject as needed.

Structure (SMILES): CC[C@@H](C(N)=O)N1CCCC1=O [levetiracetam, (2S)-2-(2-oxopyrrolidin-1-yl)butanamide]
- performance in Buschke Selective Reminding Test—Delayed Recall (aMCI subjects [1]): fail to rescue performance
- time spent in the target quadrant (performance vs vehicle) ([2]; levetiracetam 5 mg/kg/day i.p., retention trial 24 hours after two training days): did not significantly improve
- time spent in the target annulus ([2]; levetiracetam 10 mg/kg/day i.p., retention trial): effectiveness of the 10 mg/kg/day levetiracetam treatment was also seen
- time spent in the target quadrant, percentage of total swimming time ([2]; levetiracetam 10 mg/kg/day i.p., retention trial 24 hours after two training days): approximately 35%
- DG/CA3 hyperactivity (fMRI) ([3]; levetiracetam 62.5 mg BID for two weeks): does not significantly reduce
- DG/CA3 activity during successful memory judgments (fMRI) ([3]; levetiracetam 125 mg twice a day for two weeks vs placebo): reduces DG/CA3 hyper-activity
- DG/CA3 hyperactivity (fMRI) ([3]; levetiracetam 250 mg BID for two weeks): does not significantly reduce
- performance in Benton Visual Retention Test (aMCI subjects [4]): fail to rescue performance
